Source: US20130096067A1, “DROSOPHILA TUMOR STEM CELL MODEL AND USES THEREOF” (priority 2011, published 2013)
Read-outs that look alike come from different tables or passages of the source. Square brackets hold non-standard residues; d marks the D form. Peptide text beside a SMILES is read from it. * marks the point of attachment. Sta = CC(C)C[C@H](N)[C@@H](O)CC(=O)O; Isovaleryl = CC(C)CC(=O)*

System: Raf-1^gof intestinal tumors
Conditions: for Log2 (fold) of luciferase activity relative to DMSO controls / Fold (luciferase activity relative to DMSO controls): ICCB compounds fed in vials to flies with one-day old Raf-1^gof tumors
[1] = screen of 480 ICCB compounds in vials, compounds fed to flies with one-day old Raf-1^gof tumors, assessed three days later, esg-Gal4 luciferase
[2] = screen of 480 ICCB compounds in vials, compounds fed to flies with one-day old Raf-1^gof tumors, assessed three days later, esg-Gal4 luciferase, averaged from multiple wells
[3] = assessed three days later, averaged from multiple wells
Throughout, for Fold (luciferase activity relative to DMSO controls): test concentration or dose not given here.
Throughout, for Fold (luciferase activity, fold difference relative to DMSO controls): test concentration or dose not given here.
Throughout, for Log2 (fold) (luciferase activity, log2 of the fold difference relative to DMSO controls): test concentration or dose not given here.
Throughout, for Log2 (fold) of luciferase activity relative to DMSO controls: test concentration or dose not given here.

**Q.** What does the source list for N#C/C(=C\c1ccc(O)c(O)c1)C(N)=S [AG213 (Tyrphostin 47)]?
**A.** Log2 (fold) (luciferase activity, log2 of the fold difference relative to DMSO controls) [1]: −0.625; Fold (luciferase activity, fold difference relative to DMSO controls) [2]: 0.648

**Q.** With CCCCCC=CCC=CCC=CC=CC(=O)CCCC(=O)O [5-KETOEICOSATETRAENOIC ACID] as the molecule, how does the “Log2 (fold) (luciferase activity, log2 of the fold difference relative to DMSO controls)” value [1] read?
**A.** −0.316

**Q.** What about the “Fold (luciferase activity, fold difference relative to DMSO controls)” value [2] of the same molecule?
**A.** 0.803

**Q.** Which results are given for C=C1O[C@@](CO)(n2cnc3c(N)ncnc32)[C@H](O)[C@@H]1O [decoyinine]?
**A.** Log2 (fold) (luciferase activity, log2 of the fold difference relative to DMSO controls) [1]: −0.298; Fold (luciferase activity, fold difference relative to DMSO controls) [2]: 0.813

**Q.** For COc1ccc(CCCOC(Cn2ccnc2)c2ccc(OC)cc2)cc1 (stereo not drawn) [SKF-96365], which “Log2 (fold) of luciferase activity relative to DMSO controls” value (assessed three days later) is on record?
**A.** 0.134

**Q.** And the “Fold (luciferase activity relative to DMSO controls)” value [3]?
**A.** 1.097 fold

**Q.** With CCCCC(C)(C)C(O)C=CC1C(O)CC(=O)C1CC=CCCCC(=O)O (stereo not drawn) [16,16-DIMETHYL-PROSTAGLANDIN E2] as the molecule, how does the “Log2 (fold) of luciferase activity relative to DMSO controls” value (assessed three days later) read?
**A.** −0.013

**Q.** And the “Fold (luciferase activity relative to DMSO controls)” value [3]?
**A.** 0.991 fold

**Q.** CNc1ccc2oc(C[C@H]3O[C@@]4(CC[C@H]3C)O[C@H]([C@H](C)C(=O)c3ccc[nH]3)[C@H](C)C[C@H]4C)nc2c1C(=O)O [A-23187] was tested. Which “Log2 (fold) of luciferase activity relative to DMSO controls” value (assessed three days later) did it give?
**A.** 0.176

**Q.** And the “Fold (luciferase activity relative to DMSO controls)” value [3]?
**A.** 1.130 fold

**Q.** How did the “Log2 (fold) (luciferase activity, log2 of the fold difference relative to DMSO controls)” value [1] turn out when CC(C)CC(=O)N[C@H](C(=O)N[C@H](C(=O)N[C@@H](CC(C)C)[C@@H](O)CC(=O)N[C@@H](C)C(=O)N[C@@H](CC(C)C)[C@@H](O)CC(=O)O)C(C)C)C(C)C [pepstatin] (Isovaleryl-VV[Sta]A[Sta]-OH) was run?
**A.** −0.491

**Q.** And the “Fold (luciferase activity, fold difference relative to DMSO controls)” value [2]?
**A.** 0.711

**Q.** CC1=C(/C=C/C(C)=C\C=C\C(C)=C\C(=O)O)C(C)(C)CCC1 [9-CIS RETINOIC ACID] was tested. Which “Log2 (fold) (luciferase activity, log2 of the fold difference relative to DMSO controls)” value [1] did it give?
**A.** −0.578

**Q.** And the “Fold (luciferase activity, fold difference relative to DMSO controls)” value [2]?
**A.** 0.670

**Q.** What does the source list for CC/C=C\C/C=C\C/C=C\CCCCCCCCCC(=O)O [EICOSATRIENOIC ACID (20:3 n-3)]?
**A.** Log2 (fold) of luciferase activity relative to DMSO controls (assessed three days later): 0.198; Fold (luciferase activity relative to DMSO controls) [3]: 1.147 fold

**Q.** CCCCCCCCCC(=O)N[C@H](CN1CCOCC1)[C@H](O)c1ccccc1 (racemic) [DL-PDMP] was tested. Which “Log2 (fold) of luciferase activity relative to DMSO controls” value (assessed three days later) did it give?
**A.** 0.078

**Q.** What about the “Fold (luciferase activity relative to DMSO controls)” value [3] of the same molecule?
**A.** 1.056 fold

**Q.** How did the “Log2 (fold) (luciferase activity, log2 of the fold difference relative to DMSO controls)” value [1] turn out when OC[C@H]1O[C@@H](n2cnc3cc(Cl)c(Cl)cc32)[C@H](O)[C@@H]1O [DRB] was run?
**A.** −0.246

**Q.** And the “Fold (luciferase activity, fold difference relative to DMSO controls)” value [2]?
**A.** 0.843

**Q.** Which results are given for CCCCCCCCC#CCC#CCC#CCCCC(=O)O [5,8,11-EICOSATRIYNOIC ACID]?
**A.** Log2 (fold) of luciferase activity relative to DMSO controls (assessed three days later): 0.094; Fold (luciferase activity relative to DMSO controls) [3]: 1.067 fold

**Q.** Which results are given for N#C/C(=C/c1ccc(O)c(O)c1)C(=O)NCc1ccccc1 [AG-490]?
**A.** Log2 (fold) (luciferase activity, log2 of the fold difference relative to DMSO controls) [1]: −0.272; Fold (luciferase activity, fold difference relative to DMSO controls) [2]: 0.828

**Q.** Which results are given for O=C(O)c1ccc(/C2=C3\C=CC(=N3)/C(c3ccc(C(=O)O)cc3)=c3/cc/c4[n]3[Mn]([Cl])[n]3c2ccc3/C(c2ccc(C(=O)O)cc2)=C2/C=CC(=N2)\C=4c2ccc(C(=O)O)cc2)cc1 [MnTBAP]?
**A.** Log2 (fold) (luciferase activity, log2 of the fold difference relative to DMSO controls) [1]: −0.245; Fold (luciferase activity, fold difference relative to DMSO controls) [2]: 0.844

**Q.** What does the source list for N#Cc1cc2c(OCC(O)CN3CCN(C(c4ccccc4)c4ccccc4)CC3)cccc2[nH]1 (stereo not drawn) [SDZ-201106]?
**A.** Fold (luciferase activity, fold difference relative to DMSO controls) (in vivo): 0.804; Log2 (fold) (luciferase activity, log2 of the fold difference relative to DMSO controls) (in vivo): −0.315

**Q.** Which “Log2 (fold) (luciferase activity, log2 of the fold difference relative to DMSO controls)” value [1] does the source give for CCCCCCCCCCCCCC(=O)O[C@@H]1[C@@H](C)[C@@]2(O)[C@@H](C=C(CO)C[C@]3(O)C(=O)C(C)=C[C@@H]23)[C@@H]2C(C)(C)[C@]12OC(C)=O [phorbol 12 myristate 13 acetate] here?
**A.** −0.323

**Q.** What about the “Fold (luciferase activity, fold difference relative to DMSO controls)” value [2] of the same molecule?
**A.** 0.799

**Q.** What does the source list for CCCC(=O)Nc1nc2c(ncn2C2O[C@H]3COP(=O)(O)O[C@@H]3[C@@H]2OC(=O)CCC)c(=O)[nH]1 (stereo partly drawn) [dibutyrylcyclic GMP]?
**A.** Log2 (fold) (luciferase activity, log2 of the fold difference relative to DMSO controls) [1]: −0.342; Fold (luciferase activity, fold difference relative to DMSO controls) [2]: 0.789

**Q.** What does the source list for O=S(=O)(c1cccc2c(Cl)cccc12)N1CCCNCC1 [ML9]?
**A.** Log2 (fold) (luciferase activity, log2 of the fold difference relative to DMSO controls) [1]: −0.458; Fold (luciferase activity, fold difference relative to DMSO controls) [2]: 0.728

**Q.** What does the source list for CCCCCCCCCCCCCCC[C@@H](O)[C@@H](N)CO [DIHYDROSPHINGOSINE]?
**A.** Log2 (fold) of luciferase activity relative to DMSO controls (assessed three days later): 0.000; Fold (luciferase activity relative to DMSO controls) [3]: 1.000 fold

**Q.** CCCCC/C=C\C/C=C\C/C=C\C/C=C\CCCC(=O)OC(CO)CO [2-ARACHIDONOYLGLYCEROL] was tested. Which “Log2 (fold) of luciferase activity relative to DMSO controls” value (assessed three days later) did it give?
**A.** 0.119

**Q.** What about the “Fold (luciferase activity relative to DMSO controls)” value [3] of the same molecule?
**A.** 1.086 fold

**Q.** With COC(=O)[C@@H](N)CCCNC(=N)N[N+](=O)[O-] [L-NAME] as the molecule, how does the “Log2 (fold) (luciferase activity, log2 of the fold difference relative to DMSO controls)” value [1] read?
**A.** −0.446

**Q.** And the “Fold (luciferase activity, fold difference relative to DMSO controls)” value [2]?
**A.** 0.734

**Q.** For CC(C)[C@]12O[C@H]1[C@@H]1O[C@]13[C@]1(O[C@H]1C[C@H]1C4=C(CC[C@@]13C)C(=O)OC4)[C@@H]2O [triptolide, reference compound], which “Log2 (fold)” value (Table 3 summary of hits, Screen ICCB) is on record?
**A.** −2.553

**Q.** Which “Log2 (fold) of luciferase activity relative to DMSO controls” value (assessed three days later) does the source give for CN1CCN(CCCN2c3ccccc3Sc3ccc(C(F)(F)F)cc32)CC1 [trifluoperazine] here?
**A.** −0.206

**Q.** And the “Fold (luciferase activity relative to DMSO controls)” value [3]?
**A.** 0.867 fold
